Results as given in patent US10538535B2, “Antitumoral compounds” (priority 2017, dated 2020).
Like-named read-outs stand apart in the source and are kept apart here.

Key:
[1] = system: HT1080 tumors; assay: In vivo xenograft, human fibrosarcoma HT1080; details: HT1080; Day 28; iv Days 0, 7, 14; 4-R 0.30 mg/kg
Description: Female athymic nu/nu mice (Harlan Laboratories Models, S. L. Barcelona, Spain or Envigo, Spain) were utilized for all experiments. Animal were housed in individually ventilated cages Sealsafe® Plus, Techniplast S.P.A.), up to ten per cage on a 12-hour light-dark cycle at 21-23° C. and 40-60% humidity. […] Animals were acclimated for at least 5 days prior to tumor implantation with a tumor cell suspension.
HT1080 cells were maintained in vitro at 37° C. with 5% CO2 in Minimum Essential Medium Eagle (MEME) (Sigma-Aldrich, Co). Each animal was orthotopically implanted into gastroecnemius muscle by an intramuscular injection using a 26 G needle and a 1 cc syringe at 4-6 weeks of age, with 10×10^6 HT1080 cells, suspended in serum free medium, without antibiotics.
(§4) Treatment tolerability was assessed by monitoring body weight evolution, clinical signs of systemic toxicity, as well as evidences of local damage in the injection site.
In xenograft studies with HT1080 cell line: • Total diameter (tumor+leg) measurements were determined by using digital caliper (Fowler Sylvac, S235PAT).
(§5) Treatments producing >20% lethality and/or 20% net body weight loss were considered toxic.

[2] = MTMD (Maximum Tolerated Multiple Dose) determination, iv weekly x3; type: in vivo; details: mice; iv/Q7dx3
Source text: (§1) Female CD-1 or Athymic Nude-Fox1 nu/nu mice (Envigo) were utilized for all experiments. […] Animals were acclimated for five days prior to being individually tattoo-identified. Animal protocols were reviewed and approved according to the regional Institutional Animal Care and Use Committees.
(§2) Mice were randomly allocated into experimental groups and intravenously administered, once for the MTD (Maximum Tolerated Dose) determination or one administration a week during three consecutive weeks, for the MTMD (Maximum Tolerated Multiple Dose) determination study. The animals were administered with white formulation or with compound dissolved in the experimental formulation at different concentrations. The volume administered was always 10 mL/kg. Once administered, animals were monitored for clinical signs of systemic toxicity, changes in body weight and mortality up to 14 days after the administration.

[3] = MTD (Maximum Tolerated Dose) determination, single iv administration; type: in vivo; details: mice, iv/SD
Source text: as §1, §2

[4] = system: A549 cells; assay: cells; details: for CC50: read-out: LC50
Procedure, shortened: (§3)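 5000 cells/well, 18 h attachment; 72 h compound treatment (1% DMSO final, 10–0.003 μg/mL); fixation in 1% glutaraldehyde, 0.4% SRB stain; NCI algorithm, 4-parameter logistic fit.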

[5] = system: HT29 cells; assay: cells; details: for CC50: read-out: LC50
Procedure, shortened: as §3

[6] = system: H82 tumors; assay: In vivo xenograft, human lung (SCLC) H82; details: iv Days 0, 7, 14, 12-R 0.05 mg/kg, Compound D 0.5 mg/kg
Description: (§6) Female athymic nu/nu mice (Harlan Laboratories Models, S. L. Barcelona, Spain or Envigo, Spain) were utilized for all experiments. Animal were housed in individually ventilated cages Sealsafe® Plus, Techniplast S.P.A.), up to ten per cage on a 12-hour light-dark cycle at 21-23° C. and 40-60% humidity. Mice were allowed free access to irradiated standard rodent diet (Tecklad 2914C) and sterilized water. Animals were acclimated for at least 5 days prior to tumor implantation with a tumor cell suspension.
H82 cells were grown as a suspension and maintained by addition of fresh medium, as the cell density increases, every 2 to 3 days. Every week, culture was reestablished by centrifugation of the suspension with subsequent resuspension in fresh medium at a concentration of 1×10^5 cell/ml. Animals were subcutaneously implanted (on the right flank using 26 G needle and a 1 cc syringe) at 4-6 weeks of age with 5×10^6 H82 cells, suspended in 0.05 mL of a solution consisting of 50% Matrigel® (Corning Incorporated Life Sciences) and 50% medium without serum or antibiotics.
as §4
(§7) In xenograft studies with other cell lines: • Tumor volume was calculated using the equation (a·b^2)/2, where a: length (longest diameter) and b: width (shortest diameter) were measured in mm by using digital caliper (Fowler Sylvac, S235PAT).
as §5
(§8) Tables and figures summarize the data obtained from complete experimental groups, i.e. those groups keeping the initial number of animals, n=8-10.

[7] = system: H526 tumors; assay: In vivo xenograft, human lung (SCLC) H526; details: iv Days 0, 7, 14, 12-R 0.05 mg/kg, Compound D 0.5 mg/kg
Description: as §6
H526 cells were grown as a suspension and maintained by addition of fresh medium, as the cell density increases, every 2 to 3 days. Every week, culture was reestablished by centrifugation of the suspension with subsequent resuspension in fresh medium at a concentration of 1×10^5 cell/mL. Each animal was subcutaneously implanted (on the right flank using 26 G needle and a 1 cc syringe) at 4-6 weeks of age with 5×10^6 H526 cells suspended in 0.05 mL of a solution consisting of 50% Matrigel® (Corning Incorporated Life Sciences) and 50% medium without serum or antibiotics.
as §4, §5

[8] = system: PC-3 tumors; details: 12-R 0.05 mg/kg
Source text: In this model, instead of male, female animals were used because PC-3 growth is not hormone dependant.

[9] = system: PSN1 cells; assay: cells; details: for CC50: read-out: LC50
Procedure, shortened: as §3

[10] = system: MDA-MB-231 cells; assay: cells; details: for CC50: read-out: LC50
Procedure, shortened: as §3

[11] = system: DU-145 tumors
Description: as §6
Culture cells were passaged every 3 to 5 days upon reaching confluence Each male athymic mice was subcutaneously implanted (on the right flank using a 26 G needle and a 1 cc syringe) at 4-6 weeks of age with 5×10^6 DU-145 cells suspended in 0.05 mL of a solution consisting of 50% Matrigel® Matrix (Corning Incorporated Life Sciences) and 50% medium without serum or antibiotics.
as §4, §7, §5, §8

[12] = MDA-MB-231, 72 hours treatment, SRB

SMILES: COc1c(C)cc2c(c1O)[C@@H]1[C@@H]3[C@@H]4SC[C@]5(N[C@@H](CO)Cc6c5[nH]c5ccccc65)C(=O)OC[C@@H](c5c6c(c(C)c(OC(C)=O)c54)OCO6)N3[C@@H](O)[C@H](C2)N1C [Compound 4-R]
- Total diameter (tumor + leg) [1]: 18.0 mm
- MTMD [2]: 0.30 mg/kg
- MTD at 14 days ([3]; female, mouse, in vivo): 0.25 mg/kg
- CC50 ([4]; Homo sapiens, A549, 72 h): > 127 nM
- CC50 ([5]; Homo sapiens, HT-29, 72 h): > 127 nM

SMILES: COc1c(C)cc2c(c1O)[C@@H]1[C@@H]3[C@@H]4SC[C@]5(N[C@@H](CN)Cc6c5[nH]c5ccccc65)C(=O)OC[C@@H](c5c6c(c(C)c(OC(C)=O)c54)OCO6)N3[C@@H](O)[C@H](C2)N1C [Compound 12-R]
- Median Tumor Volume ([6]; Table 33, Day 0.0): 170.50 mm^3
- Median Tumor Volume ([6]; Table 33, Day 2.0): 381.40 mm^3
- Median Tumor Volume ([6]; Table 33, Day 5.0): 793.20 mm^3
- Median Tumor Volume ([6]; Table 33, Day 7.0): 1187.20 mm^3
- Median Tumor Volume ([6]; Table 33, Day 9.0): 1699.30 mm^3
- Median Tumor Volume ([6]; Table 33, Day 12.0): 2125.60 mm^3
- Median Tumor Volume ([7]; Table 32, Day 0.0): 214.20 mm^3
- Median Tumor Volume ([7]; Table 32, Day 2.0): 404.50 mm^3
- Median Tumor Volume ([7]; Table 32, Day 4.0): 680.50 mm^3
- Median Tumor Volume ([7]; Table 32, Day 7.0): 995.20 mm^3
- Median Tumor Volume ([7]; Table 32, Day 9.0): 1290.50 mm^3
- Median Tumor Volume ([7]; Table 32, Day 11.0): 1568.00 mm^3
- Median Tumor Volume ([7]; Table 32, Day 14.0): 2025.00 mm^3
- Median Tumor Volume ([8]; Day 0, iv Days 0, 7 and 14, 12-S […]): 129.0 mm^3
- Median Tumor Volume ([8]; Day 2, iv Days 0, 7 and 14, 12-S […]): 136.2 mm^3
- Median Tumor Volume ([8]; Day 4, iv Days 0, 7 and 14, 12-S […]): 144.2 mm^3
- Median Tumor Volume ([8]; Day 7, iv Days 0, 7 and 14, 12-S […]): 172.2 mm^3
- Median Tumor Volume ([8]; Day 11, iv Days 0, 7 and 14, 12-S […]): 183.6 mm^3
- Median Tumor Volume ([8]; Day 14, iv Days 0, 7 and 14, 12-S […]): 205.2 mm^3
- Median Tumor Volume ([8]; Day 16, iv Days 0, 7 and 14, 12-S […]): 256.0 mm^3
- Median Tumor Volume ([8]; Day 18, iv Days 0, 7 and 14, 12-S […]): 325.7 mm^3
- Median Tumor Volume ([8]; Day 21, iv Days 0, 7 and 14, 12-S […]): 322.2 mm^3
- Median Tumor Volume ([8]; Day 23, iv Days 0, 7 and 14, 12-S […]): 407.8 mm^3
- Median Tumor Volume ([8]; Day 25, iv Days 0, 7 and 14, 12-S […]): 419.9 mm^3
- Median Tumor Volume ([8]; Day 29, iv Days 0, 7 and 14, 12-S […]): 459.1 mm^3
- Median Tumor Volume ([8]; Day 32, iv Days 0, 7 and 14, 12-S […]): 512.1 mm^3
- Median Tumor Volume ([8]; Day 35, iv Days 0, 7 and 14, 12-S […]): 579.2 mm^3
- Median Tumor Volume ([8]; Day 37, iv Days 0, 7 and 14, 12-S […]): 613.8 mm^3
- Median Tumor Volume ([8]; Day 39, iv Days 0, 7 and 14, 12-S […]): 764.1 mm^3
- Median Tumor Volume ([8]; Day 42, iv Days 0, 7 and 14, 12-S […]): 785.0 mm^3
- Median Tumor Volume ([8]; Day 44, iv Days 0, 7 and 14, 12-S […]): 845.5 mm^3
- Median Tumor Volume ([8]; Day 46, iv Days 0, 7 and 14, 12-S […]): 748.0 mm^3
- Median Tumor Volume ([8]; Day 49, iv Days 0, 7 and 14, 12-S […]): 808.7 mm^3
- Median Tumor Volume ([8]; Day 51, iv Days 0, 7 and 14, 12-S […]): 855.8 mm^3
- Median Tumor Volume ([8]; Day 56, iv Days 0, 7 and 14, 12-S […]): 1125.2 mm^3
- CC50 ([9]; Homo sapiens, PSN1, 72 h): > 128 nM

SMILES: COc1ccc2[nH]c3c(c2c1)C[C@H](CO)N[C@]31CS[C@@H]2c3c(OC(C)=O)c(C)c4c(c3[C@H](COC1=O)N1[C@@H]2[C@H]2c3c(cc(C)c(OC)c3O)C[C@@H]([C@@H]1O)N2C)OCO4 [Compound 19-R]
- MTMD [2]: 0.15 mg/kg
- MTD [3]: 0.15 mg/kg
- TGI ([9]; PSN1, 72 hours treatment, SRB): 1.35E−09 Molar
- TGI ([4]; A549, 72 hours treatment, SRB): 3.56E−09 Molar
- CC50 ([4]; A549, 72 hours treatment, SRB): > 123 nM
- TGI [10, 12]: 1.35E−09 Molar
- CC50 [10, 12]: > 123 nM

SMILES: COc1ccc2[nH]c3c(c2c1)C[C@@H](CO)N[C@]31CS[C@@H]2c3c(OC(C)=O)c(C)c4c(c3[C@H](COC1=O)N1[C@@H]2[C@H]2c3c(cc(C)c(OC)c3O)C[C@@H]([C@@H]1O)N2C)OCO4 [Compound 19-S]
- MTMD [2]: 0.75 mg/kg
- MTD [3]: 0.5 mg/kg
- GI50 ([9]; PSN1, 72 hours treatment, SRB): 2.95 nM
- TGI ([9]; PSN1, 72 hours treatment, SRB): 3.19E−09 Molar
- CC50 ([9]; PSN1, 72 hours treatment, SRB): > 123 nM
- GI50 ([4]; A549, 72 hours treatment, SRB): 3.07 nM
- TGI ([4]; A549, 72 hours treatment, SRB): 3.31E−09 Molar
- CC50 ([4]; A549, 72 hours treatment, SRB): > 123 nM
- GI50 [10, 12]: 1.96 nM
- TGI [10, 12]: 3.31E−09 Molar
- CC50 [10, 12]: 11 nM
- GI50 ([5]; HT29, 72 hours treatment, SRB): 1.35 nM
- TGI ([5]; HT29, 72 hours treatment, SRB): 1.60E−09 Molar
- CC50 ([5]; HT29, 72 hours treatment, SRB): > 123 nM

SMILES: COc1ccc2oc3c(c2c1)CCN[C@]31CS[C@@H]2c3c(OC(C)=O)c(C)c4c(c3[C@H](COC1=O)N1[C@@H]2[C@H]2c3c(cc(C)c(OC)c3O)C[C@@H]([C@@H]1O)N2C)OCO4 [Compound 35]
- MTMD [2]: 0.25 mg/kg
- GI50 ([9]; Homo sapiens, PSN1, 72 h): 6.24 nM
- CC50 ([9]; Homo sapiens, PSN1, 72 h): 14 nM
- IC (TGI) ([9]; Homo sapiens, PSN1, 72 h, read-out: TGI): 9.03 nM
- GI50 ([4]; Homo sapiens, A549, 72 h): 8.14 nM
- CC50 ([4]; Homo sapiens, A549, 72 h): > 127 nM
- IC (TGI) ([4]; Homo sapiens, A549, 72 h, read-out: TGI): 8.78 nM
- GI50 ([10]; Homo sapiens, MDA-MB-231, 72 h): 4.58 nM
- CC50 ([10]; Homo sapiens, MDA-MB-231, 72 h): 16.5 nM
- IC (TGI) ([10]; Homo sapiens, MDA-MB-231, 72 h, read-out: TGI): 8.27 nM
- GI50 ([5]; Homo sapiens, HT-29, 72 h): 7.89 nM
- CC50 ([5]; Homo sapiens, HT-29, 72 h): > 127 nM
- IC (TGI) ([5]; Homo sapiens, HT-29, 72 h, read-out: TGI): 8.65 nM

SMILES: COc1c(C)cc2c(c1O)[C@@H]1[C@@H]3[C@@H]4SC[C@]5(N[C@H](CO)Cc6c5oc5ccccc65)C(=O)OC[C@@H](c5c6c(c(C)c(OC(C)=O)c54)OCO6)N3[C@@H](O)[C@H](C2)N1C [Compound 39-S]
- Median Tumor Volume ([11]; Day 0, 39-S 1.00 mg/Kg iv Days 0, 7 and 14): 179.9 mm^3
- Median Tumor Volume ([11]; Day 2, 39-S 1.00 mg/Kg iv Days 0, 7 and 14): 199.9 mm^3
- Median Tumor Volume ([11]; Day 4, 39-S 1.00 mg/Kg iv Days 0, 7 and 14): 222.2 mm^3
- Median Tumor Volume ([11]; Day 7, 39-S 1.00 mg/Kg iv Days 0, 7 and 14): 340.5 mm^3
- Median Tumor Volume ([11]; Day 9, 39-S 1.00 mg/Kg iv Days 0, 7 and 14): 354.1 mm^3
- Median Tumor Volume ([11]; Day 11, 39-S 1.00 mg/Kg iv Days 0, 7 and 14): 349.7 mm^3
- Median Tumor Volume ([11]; Day 14, 39-S 1.00 mg/Kg iv Days 0, 7 and 14): 429.1 mm^3
- Median Tumor Volume ([11]; Day 16, 39-S 1.00 mg/Kg iv Days 0, 7 and 14): 454.8 mm^3
- Median Tumor Volume ([11]; Day 18, 39-S 1.00 mg/Kg iv Days 0, 7 and 14): 449.7 mm^3
- Median Tumor Volume ([11]; Day 21, 39-S 1.00 mg/Kg iv Days 0, 7 and 14): 517.5 mm^3
- Median Tumor Volume ([11]; Day 23, 39-S 1.00 mg/Kg iv Days 0, 7 and 14): 568.5 mm^3
- Median Tumor Volume ([11]; Day 25, 39-S 1.00 mg/Kg iv Days 0, 7 and 14): 629.4 mm^3
- Median Tumor Volume ([11]; Day 28, 39-S 1.00 mg/Kg iv Days 0, 7 and 14): 775.7 mm^3
- CC50 ([5]; Homo sapiens, HT-29, 72 h): > 127 nM
